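Assay format: 96-well plates, 48-hour exposure. TGI marks complete inhibition of growth.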
Tests used:
Assay in all cases: NCI tumour cell line growth inhibition, 48 h
RXF 393 renal = test system: RXF 393 renal
SF-268 CNS = test system: SF-268 CNS
NCI/ADR-RES ovarian = test system: NCI/ADR-RES ovarian
SW-620 colon = test system: SW-620 colon
SK-MEL-2 melanoma = test system: SK-MEL-2 melanoma
KM12 colon = test system: KM12 colon
HS 578T breast = test system: HS 578T breast
COLO 205 colon = test system: COLO 205 colon
SK-MEL-28 melanoma = test system: SK-MEL-28 melanoma
EKVX NSCLC = test system: EKVX NSCLC
CCRF-CEM leukemia = test system: CCRF-CEM leukemia
A549 NSCLC = test system: A549 NSCLC
OVCAR-5 ovarian = test system: OVCAR-5 ovarian
NCI-H226 lung = test system: NCI-H226 lung
HOP-92 NSCLC = test system: HOP-92 NSCLC
LOX IMVI melanoma = test system: LOX IMVI melanoma
786-0 renal = test system: 786-0 renal
HCT-116 colon = test system: HCT-116 colon
NCI-H23 lung = test system: NCI-H23 lung
OVCAR-4 ovarian = test system: OVCAR-4 ovarian
IGROV1 ovarian = test system: IGROV1 ovarian
PC-3 prostate = test system: PC-3 prostate
HT29 colon = test system: HT29 colon
SN12C renal = test system: SN12C renal
MCF7 breast = test system: MCF7 breast
DU-145 prostate = test system: DU-145 prostate
M14 melanoma = test system: M14 melanoma
UACC-257 melanoma = test system: UACC-257 melanoma
TK-10 renal = test system: TK-10 renal
MALME-3M melanoma = test system: MALME-3M melanoma
MDA-MB-231 breast = test system: MDA-MB-231 breast
ACHN renal = test system: ACHN renal
SF-295 CNS = test system: SF-295 CNS
UACC-62 melanoma = test system: UACC-62 melanoma
HCT-15 colon = test system: HCT-15 colon
CAKI-1 renal = test system: CAKI-1 renal
U251 CNS = test system: U251 CNS
SK-MEL-5 melanoma = test system: SK-MEL-5 melanoma
RPMI-8226 leukemia = test system: RPMI-8226 leukemia
HOP-62 NSCLC = test system: HOP-62 NSCLC
OVCAR-8 ovarian = test system: OVCAR-8 ovarian
SNB-19 CNS = test system: SNB-19 CNS
MDA-N = test system: MDA-N
UO-31 renal = test system: UO-31 renal
NCI-H460 lung = test system: NCI-H460 lung
NCI-H522 lung = test system: NCI-H522 lung
SF-539 CNS = test system: SF-539 CNS
MDA-MB-435 = test system: MDA-MB-435
SK-OV-3 ovarian = test system: SK-OV-3 ovarian
OVCAR-3 ovarian = test system: OVCAR-3 ovarian
K-562 leukemia = test system: K-562 leukemia
MOLT-4 leukemia = test system: MOLT-4 leukemia

Measured: TGI

Cc1cccc(C)c1NC(=S)N/C=C(\C#N)C(N)=O
> 100 µM: all assays above
